In brackets after ≈: the same amount, converted by molar mass.
Tests used:
[1] = test system: pAMPK; assay: pAMPK immunoblotting in Beas2B cells (Table 1); assay type: cell-based; conditions: Homo sapiens, BEAS-2B, DMEM media without glucose, compounds 18 h
Protocol: Additional compounds in Table 1 were or can be prepared according to the above-described Examples. Human bronchial epithelial cells (Beas2B) were seeded in 6-well plates for 18 h. Cells were then exposed to DMEM media without glucose and compounds at various concentrations for an additional 18 h before being collected for immunoblotting.

[2] = test system: phospho-AMPK; assay: phospho-AMPK / p-ACC immunoblotting in Beas2B cells (in vitro studies); assay type: cell-based, Human
Protocol: FIG. 3. (A) Beas2b cells were cultured in DMEM 2% media with glucose for 24 h before switching to glucose-free media. Cells were then exposed to either DMSO or Compound 1 (2 μM) in a time course before being collected for immunoblotting. (B) Beas2B cells were exposed to Compound 1 for 18 h at various doses before being collected for immunoblotting. (C) Beas2b cells were cultured in DMEM 2% media with glucose for 24 h before switching to glucose-free media. Cells were then exposed to AICAR at various doses with or without Compound 1 co-treatment. After 18 h, cells were collected before being assayed by immunoblotting.
FIG. 4. (A) Beas2b cells were cultured in DMEM 2% media with glucose for 24 h before switching to glucose-free media. Cells were then exposed to Compound 12 in a dose dependent manner for 18 h before being collected for immunoblotting. (B) Beas2b cells were cultured in DMEM 2% media with glucose for 24 h before Compound 12 treatment in a dose dependent manner. After 18 h, cells were then collected for immunoblotting. (C) Beas2b cells were cultured in DMEM 2% media with glucose for 24 h before switching to glucose-free media. Cells were then exposed to Compound 12 for 18 h before being collected for mRNA analysis. (D) 50K PBMC cells were cultured in 96 well plates before being exposed to Compound 12 for 4 h. Cells were then treated with LPS (10 ng/ml) for additional 2 h. Media were then collected and IL-1b concentration was determined by ELISA.
FIG. 9. (A) Beas2b cells were cultured in DMEM 2% media with glucose for 24 h before switching to glucose-free media. Cells were then exposed to Compound 23 or metformin in a dose dependent manner for 18 h before being collected for immunoblotting. (B) Beas2b cells were cultured in DMEM 2% media with glucose for 24 h before switching to glucose-free media and treated with Compound 12 or Compound 23 in a dose dependent manner. After 6 h, cells were then collected for immunoblotting. (C) Beas2b cells were cultured in DMEM 2% media with glucose for 24 h before switching to glucose-free media and treated with Compound 12 or Compound 23 in a dose dependent manner. After 18 h, cells were then collected for immunoblotting. (D) Beas2b cells were transfected with AMPK phospho mimic T172D or phospho dead T172A mutant for 24 h. Cells were then switched to glucose-free media and exposed to Compound 23 in a dose or time dependent manner before being collected for immunoblotting. (E) Beas2b cells were transfected with control siRNA or Fbxo48 siRNA for 48 h before switching to glucose-free media. Cells were then exposed to Compound 23 in a dose dependent manner before being collected for immunoblotting. (F) Compound 23 chemical structure.
Compound 1 was studied in in vitro assays using Beas2B cells. […]
Compound 23 was tested in in vitro studies using Beas2B cells and compared with metformin.

[3] = test system: High-fat diet fed C57BL6J mice; assay: Acute oral dosing study in high-fat diet fed mice; assay type: in vivo
[4] = test system: Diet-induced obese mice; assay: Diet-induced obese mice study, 14 days dosing; assay type: in vivo; conditions: once daily for 14 days; BC1618 8 or 40 mg/kg/d
Protocol: FIG. 12. Diet-induced obese mice were fed a high-fat diet for 19 weeks and then injected with vehicle or drug once daily for 14 days. Daily body weights (in grams) of the mice are shown.
Diet-induced obese mice arrived from Jackson Labs and recovered two weeks in satellite housing before study. Mice were 25 weeks old and fed a high-fat diet for 19 weeks at the time of study. Body weight, fat and lean mass were measured and mice were grouped in order to match body weights at ˜46.5 g average per group prior to study. Following the acute dosing trial, mice were injected with vehicle or drug 1× daily between noon and 2 pm for 14 days (BC1618-L (low dose)=8 mg/kg/d, BC1618-H (high dose)=40 mg/kg/d). Body weight was recorded daily (FIGS. 12-15). FIG. 12 and FIG. 13 show body weight in grams and FIG. 14 and FIG. 15 show body weight as a percentage of body weight on day 0 (DO).
FIGS. 16-19 show the change (A) in body weight (BW) from day 0 to day 14 expressed as change in grams (FIG. 16 and FIG. 17) or as percent change from day 0 (FIG. 18 and FIG. 19).
Body composition was measured at DO in the body weight matched animals and again at day 14 (D14). Data in FIGS. 20-23 represent the change in fat mass from DO to D14 expressed as grams (FIG. 20 and FIG. 21) or as percent change (FIG. 22 and FIG. 23).
Data in FIGS. 24-27 represent the change in lean mass from DO to D14 expressed as grams (FIG. 24 and FIG. 25) and as percent change (FIG. 26 and FIG. 27). Overall there appears to be a modest effect of vehicle and drug to reduce lean mass over 14 days, but no differences between groups. Changes in BW over 14 days therefore reflect changes in fat mass and not lean mass.

Row | IC50 [1] [µg/mL] | SMILES | other results
1 | 1 to 10 (≈ 3 to 30 µM) | OC(CNC(c1ccccc1)c1ccccc1)COc1ccccc1 (centres unmarked) [Compound 13] | –
2 | 1 to 10 (≈ 2.65 to 26.5 µM) | COc1ccc(OCC(O)CNCC(c2ccccc2)c2ccccc2)cc1 (centres unmarked) [Compound 17] | –
3 | 1 to 10 (≈ 2.72 to 27.2 µM) | OC(CN(Cc1ccccc1)Cc1ccccc1)c1ccc2ccccc2c1 (centres unmarked) [Compound 24] | –
4 | – | CN(C)C(=N)N=C(N)N [metformin, reference compound] | concentration range increasing pAMPK phosphorylation and downstream substrate ACC phosphorylation ([2]; Beas2b, glucose-free media, 18 h): millimolar
5 | > 10 | O=C(c1ccccc1)c1ccc(OCC(O)CN(Cc2ccccc2)Cc2ccccc2)cc1 (centres unmarked) [Compound 21] | –
6 | 1 to 10 (≈ 2.77 to 27.7 µM) | Cc1ccccc1OCC(O)CN(Cc1ccccc1)Cc1ccccc1 (centres unmarked) [Compound 9] | –
7 | > 10 | OC(CNCC(c1ccccc1)c1ccccc1)COc1ccc(C2CCCCC2)cc1 (centres unmarked) [Compound 20] | –
8 | > 10 | OC(CNC1c2ccccc2Oc2ccccc21)COc1ccccc1 (centres unmarked) [Compound 15] | –
9 | 1 to 10 (≈ 2.41 to 24.1 µM) | OC(CNC(c1ccccc1)c1ccccc1)COc1ccc(C2CCCCC2)cc1 (centres unmarked) [Compound 18] | –
10 | 1 to 10 (≈ 2.33 to 23.3 µM) | OC(COc1ccc(C2CCCCC2)cc1)CN(Cc1ccccc1)Cc1ccccc1 (centres unmarked) [Compound 19] | –
11 | > 10 | Cc1ccccc1CNCc1ccc(OCC(O)CN(C)Cc2ccccc2)cc1 (centres unmarked) [Compound 4] | –
12 | 1 to 10 (≈ 2.52 to 25.2 µM) | OC(COc1ccc2ccccc2c1)CN(Cc1ccccc1)Cc1ccccc1 (centres unmarked) [Compound 7] | –
13 | 1 to 10 (≈ 2.88 to 28.8 µM) | OC(COc1ccccc1)CN(Cc1ccccc1)Cc1ccccc1 (centres unmarked) [Compound 16] | –
14 | – | NC(=O)c1ncn([C@@H]2O[C@H](CO)[C@@H](O)[C@H]2O)c1N [AICAR, reference compound] | glucose tolerance (intraperitoneal glucose tolerance test) ([3]; 1 g/kg body weight glucose, data not shown): no difference in glucose tolerance; body weight at the time of study ([3]; two oral doses (AICAR 200 mg/kg, BC1618 20 mg/kg)): no differences in body weight; reduction of fasting plasma glucose compared to vehicle ([3]; two oral doses (AICAR 200 mg/kg, BC1618 20 mg/kg), 2 h after second dose, P=0.08): 10%; concentration at which phospho-AMPK levels increased ([2]; Beas2b, glucose-free media, 18 h, dose dependent): ~0.05 mM; body weight loss (daily body weight) [4]: effect of AICAR and BC1618 on body weight loss; change in body weight from day 0 to day 14 [4]: an effect due to AICAR or BC1618; change in fat mass from D0 to D14 [4]: apparent additive effect
15 | > 10 | OC(CNCc1ccccc1)COc1ccc(OCC(O)CNCc2ccccc2)cc1 (centres unmarked) [Compound 8] | –
16 | 1 to 10 (≈ 2.65 to 26.5 µM) | COc1ccc(OCC(O)CN(Cc2ccccc2)Cc2ccccc2)cc1 (centres unmarked) [Compound 6] | –
17 | 1 to 10 (≈ 2.88 to 28.8 µM) | OC(CNCC(c1ccccc1)c1ccccc1)COc1ccccc1 (centres unmarked) [Compound 14] | –
18 | > 10 | OC(COc1ccc(C(F)(F)F)cc1)CN1CCc2ccccc2C1 (centres unmarked) [Compound 26] | –
19 | > 10 | CC1CN(Cc2ccc(OCC(O)CN(C)Cc3ccccc3)cc2)C1 (centres unmarked) [Compound 10] | –
20 | > 10 | CN(Cc1ccccc1)CC(O)COc1ccc(CNC2CC2)cc1 (centres unmarked) [Compound 3] | –
21 | 1 to 10 (≈ 2.85 to 28.5 µM) | OC(CNC(c1ccccc1)c1ccccc1)COc1ccc(F)cc1 (centres unmarked) [Compound 11] | –
22 | > 10 | OC(CCc1ccccc1)CN(Cc1ccccc1)Cc1ccccc1 (centres unmarked) [Compound 25] | –
23 | 1 to 10 (≈ 2.77 to 27.7 µM) | Cc1ccc(OCC(O)CN(Cc2ccccc2)Cc2ccccc2)cc1 (centres unmarked) [Compound 5] | –
24 | > 10 | COCCN(Cc1ccc(OCC(O)CN(C)Cc2ccccc2)cc1)C(C)C (centres unmarked) [Compound 2] | –
25 | > 10 | OC(COc1ccc(-c2ccccn2)cc1)CN(Cc1ccccc1)Cc1ccccc1 (centres unmarked) [Compound 22] | –
26 | > 10 | OC(CNc1ccc(C(F)(F)F)cc1)CNc1ccc(C(F)(F)F)cc1 [Compound 27] | –
27 | 1 to 10 (≈ 1.62 to 16.2 µM) | OC(COc1ccc(OCC(O)CN(Cc2ccccc2)Cc2ccccc2)cc1)CN(Cc1ccccc1)Cc1ccccc1 (centres unmarked) [Compound 1] | concentration leading to a drastic increase in phospho-AMPK levels ([2]; Beas2B cells, 18 h, various doses): 2 µM; phospho-AMPK levels compared to vehicle control ([2]; Beas2b, glucose-free media, 2 μM, time course, within 2 h): drastically increased; phospho-AMPK and downstream p-ACC levels versus AICAR ([2]; Compound 1 alone at 4 μM, AICAR at 0.25 mM): well exceeding AICAR treatment at 0.25 mM; effect of co-treatment with AICAR on phospho-AMPK ([2]; Compound 1 at 4 μM with AICAR at various doses, 18 h): completely saturated AICAR effects
28 | > 10 | OC(CNc1ccc(F)cc1)COc1ccc(F)cc1 (centres unmarked) [Compound 28] | –

Source: patent US11673853B2, “Small molecule AMPK activators” (University of Pittsburgh—Of the Commonwealth System of …, priority 2016, dated 2023)
